Test results taken from ChEMBL document CHEMBL4270557, “Discovery of potent anti-convulsant carbonic anhydrase inhibitors: Design, synthesis, in vitro and in vivo appraisal” (Eur J Med Chem, 2018).

Experiments:
Carbonic anhydrase 1 = Carbonic anhydrase 1 (Homo sapiens, UniProt P00915); assay: Inhibition of human recombinant carbonic anhydrase 1 assessed as CO2 hydration preincubated for 15 mins prior to testing measured for 10 to 100 secs by phenol red dye-based stopped-flow assay
Carbonic anhydrase 2 = Carbonic anhydrase 2 (Homo sapiens, UniProt P00918); assay: Inhibition of human recombinant carbonic anhydrase 2 assessed as CO2 hydration preincubated for 15 mins prior to testing measured for 10 to 100 secs by phenol red dye-based stopped-flow assay
Carbonic anhydrase 7 = Carbonic anhydrase 7 (Homo sapiens, UniProt P43166); assay: Inhibition of human recombinant carbonic anhydrase 7 assessed as CO2 hydration preincubated for 15 mins prior to testing measured for 10 to 100 secs by phenol red dye-based stopped-flow assay
Carbonic anhydrase 9 = Carbonic anhydrase 9 (Homo sapiens, UniProt Q16790); assay: Inhibition of human recombinant carbonic anhydrase 9 assessed as CO2 hydration preincubated for 15 mins prior to testing measured for 10 to 100 secs by phenol red dye-based stopped-flow assay
Mus musculus [1] = assay: Anticonvulsant activity in Swiss albino mouse assessed as protection against maximal electroshock-induced seizures at 30 mg/kg, ip administered 0.5 hrs prior to 50 mA current induction relative to control; type: functional
Mus musculus [2] = assay: Anticonvulsant activity in Swiss albino mouse assessed as protection against maximal electroshock-induced seizures at 30 mg/kg, ip administered 3 hrs prior to 50 mA current induction relative to control; type: functional
Mus musculus [3] = assay: Anticonvulsant activity in Swiss albino mouse assessed as protection against maximal electroshock-induced seizures at 100 mg/kg, ip administered 0.5 hrs prior to 50 mA current induction relative to control; type: functional
Mus musculus [4] = assay: Anticonvulsant activity in Swiss albino mouse assessed as protection against maximal electroshock-induced seizures at 100 mg/kg, ip administered 3 hrs prior to 50 mA current induction relative to control; type: functional
Mus musculus [5] = assay: Anticonvulsant activity in Swiss albino mouse assessed as protection against subcutaneous PTZ-induced seizures at 30 mg/kg, ip administered 0.5 hrs prior to PTZ-induction relative to control; type: functional
Mus musculus [6] = assay: Anticonvulsant activity in Swiss albino mouse assessed as protection against subcutaneous PTZ-induced seizures at 30 mg/kg, ip administered 3 hrs prior to PTZ-induction relative to control; type: functional
Mus musculus [7] = assay: Anticonvulsant activity in Swiss albino mouse assessed as protection against subcutaneous PTZ-induced seizures at 100 mg/kg, ip administered 0.5 hrs prior to PTZ-induction relative to control; type: functional
Mus musculus [8] = assay: Anticonvulsant activity in Swiss albino mouse assessed as protection against subcutaneous PTZ-induced seizures at 100 mg/kg, ip administered 3 hrs prior to PTZ-induction relative to control; type: functional
Mus musculus [9] = assay: Anticonvulsant activity in Swiss albino mouse assessed as protection against maximal electroshock-induced seizures at 30 mg/kg, ip administered 3 hrs prior to 50 mA current induction relative to control
Mus musculus [10] = assay: Anticonvulsant activity in Swiss albino mouse assessed as protection against maximal electroshock-induced seizures at 100 mg/kg, ip administered 3 hrs prior to 50 mA current induction relative to control
Mus musculus [11] = assay: Anticonvulsant activity in Swiss albino mouse assessed as protection against maximal electroshock-induced seizures at 30 mg/kg, ip administered 0.5 hrs prior to 50 mA current induction relative to control
Mus musculus [12] = assay: Anticonvulsant activity in Swiss albino mouse assessed as protection against maximal electroshock-induced seizures at 100 mg/kg, ip administered 0.5 hrs prior to 50 mA current induction relative to control

Sequence of Carbonic anhydrase 7 (P43166 whole entry): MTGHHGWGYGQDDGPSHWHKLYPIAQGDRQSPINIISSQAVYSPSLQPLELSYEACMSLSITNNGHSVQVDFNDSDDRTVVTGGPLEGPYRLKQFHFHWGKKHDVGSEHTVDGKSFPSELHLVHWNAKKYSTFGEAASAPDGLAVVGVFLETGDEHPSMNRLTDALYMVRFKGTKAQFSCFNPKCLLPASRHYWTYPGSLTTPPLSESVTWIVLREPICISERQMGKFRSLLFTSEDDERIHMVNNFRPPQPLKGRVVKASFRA
Sequence of Carbonic anhydrase 1 (P00915 whole entry): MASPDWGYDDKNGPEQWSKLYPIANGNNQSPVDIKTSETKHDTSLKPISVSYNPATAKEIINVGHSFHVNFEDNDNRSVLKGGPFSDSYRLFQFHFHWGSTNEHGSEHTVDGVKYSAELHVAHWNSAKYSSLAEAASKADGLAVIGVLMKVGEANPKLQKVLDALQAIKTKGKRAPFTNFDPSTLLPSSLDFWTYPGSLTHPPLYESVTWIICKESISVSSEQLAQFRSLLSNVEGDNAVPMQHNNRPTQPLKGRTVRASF

Row | Ki (Carbonic anhydrase 1) [nM] | Ki (Carbonic anhydrase 2) [nM] | Ki (Carbonic anhydrase 7) [nM] | Ki (Carbonic anhydrase 9) [nM] | Structure (SMILES) | other results
1 | > 10000 | 2790 | 127 | 2490 | NS(=O)(=O)c1ccc(N/N=C/c2ccc(N3CCN(C(=O)c4ccccc4)CC3)cc2)cc1 | –
2 | 8370 | 962 | 751 | 95.2 | NS(=O)(=O)c1ccc(C(=O)N/N=C/c2ccc(N3CCN(Cc4ccc5c(c4)OCO5)CC3)cc2)cc1 | –
3 | > 10000 | 4590 | 135 | 235 | NS(=O)(=O)c1ccc(N/N=C/c2ccc(N3CCN(c4ccccn4)CC3)cc2)cc1 | –
4 | 4110 | 553 | 72 | 1740 | Cc1ccc(N2CCN(c3ccc(/C=N/Nc4ccc(S(N)(=O)=O)cc4)cc3)CC2)c(C)c1 | –
5 | 2380 | 559 | 49.6 | 1270 | NS(=O)(=O)c1ccc(N/N=C/c2ccc(N3CCN(c4ccc(F)cc4)CC3)cc2)cc1 | –
6 | 322 | 30.8 | 6.2 | 1790 | NS(=O)(=O)c1ccc(N/N=C/c2ccc(N3CCN(C(=O)c4ccco4)CC3)cc2)cc1 | Activity (Mus musculus [1]): 50%; Activity (Mus musculus [2]): 50%; Activity (Mus musculus [3]): 83%; Activity (Mus musculus [4]): 50%; Activity (Mus musculus [5]): 33%; Activity (Mus musculus [6]): 33%; Activity (Mus musculus [7]): 67%; Activity (Mus musculus [8]): 50%; Activity (Mus musculus [9]): 50%; Activity (Mus musculus [10]): 50%; Activity (Mus musculus [11]): 50%; Activity (Mus musculus [12]): 83%
7 | > 10000 | 4130 | 181 | 276 | NS(=O)(=O)c1ccc(C(=O)N/N=C/c2ccc(N3CCN(c4ccccc4)CC3)cc2)cc1 | –
8 | 9490 | 686 | 78.8 | 30.4 | NS(=O)(=O)c1ccc(C(=O)N/N=C/c2ccc(N3CCN(C(=O)c4ccco4)CC3)cc2)cc1 | –
9 | 5500 | 308 | 94.7 | 1050 | NS(=O)(=O)c1ccc(C(=O)N/N=C/c2ccc(N3CCN(C(=O)c4ccccc4)CC3)cc2)cc1 | –
10 | 9470 | 7520 | 118 | 1930 | NS(=O)(=O)c1ccc(N/N=C/c2ccc(N3CCN(c4ccc(C(F)(F)F)cc4)CC3)cc2)cc1 | –
11 | 7100 | 414 | 41.5 | 163 | NS(=O)(=O)c1ccc(C(=O)N/N=C/c2ccc(N3CCN(Cc4ccccc4)CC3)cc2)cc1 | –
12 | 9640 | 1450 | 121 | 1900 | NS(=O)(=O)c1ccc(C(=O)N/N=C/c2ccc(N3CCN(C(=O)OCc4ccccc4)CC3)cc2)cc1 | –
13 | 5800 | 822 | 147 | 1960 | NS(=O)(=O)c1ccc(C(=O)N/N=C/c2ccc(N3CCN(c4ccc(F)cc4)CC3)cc2)cc1 | –
14 | 920 | 93.9 | 11.4 | 1630 | NS(=O)(=O)c1ccc(N/N=C/c2ccc(N3CCN(C(=O)OCc4ccccc4)CC3)cc2)cc1 | Activity (Mus musculus [1]): 50%; Activity (Mus musculus [2]): 33%; Activity (Mus musculus [3]): 50%; Activity (Mus musculus [4]): 67%; Activity (Mus musculus [5]): 50%; Activity (Mus musculus [6]): 67%; Activity (Mus musculus [7]): 67%; Activity (Mus musculus [8]): 33%; Activity (Mus musculus [9]): 33%; Activity (Mus musculus [10]): 67%; Activity (Mus musculus [11]): 50%; Activity (Mus musculus [12]): 50%
15 | > 10000 | 8400 | 607 | 2230 | NS(=O)(=O)c1ccc(N/N=C/c2ccc(N3CCN(c4ncccn4)CC3)cc2)cc1 | –
16 | 8160 | 556 | 148 | 1850 | NS(=O)(=O)c1ccc(C(=O)N/N=C/c2ccc(N3CCN(c4ccc(C(F)(F)F)cc4)CC3)cc2)cc1 | –
17 | > 10000 | 4560 | 126 | 152 | NS(=O)(=O)c1ccc(C(=O)N/N=C/c2ccc(N3CCN(c4ccccn4)CC3)cc2)cc1 | –
18 | 7860 | 888 | 98.4 | 1240 | NS(=O)(=O)c1ccc(N/N=C/c2ccc(N3CCN(c4ccccc4)CC3)cc2)cc1 | –
19 | 2060 | 963 | 132 | 1840 | NS(=O)(=O)c1ccc(C(=O)N/N=C/c2ccc(N3CCN(c4ncccn4)CC3)cc2)cc1 | –
